In patent US20090258381A1, “Methods for Determining the Cleavability of Substrates” (priority 2005, published 2009):

Legend:
trypsin [1] = settings: cleaved with trypsin; FRET-based methods (Grahn et al., 1998); cited from earlier work
trypsin [2] = test: Inhibition of enzymatic conversion of GPARLA by trypsin; type: biochemical; settings: degradation of substrate GPARLA by trypsin; geometric mean and standard deviation of a quadruplicate measurement; read-out: inhibition constant
Experimental: (§1) Inhibition constants were measured by carrying out two parallel enzyme dilutions in each case. One enzyme dilution was carried out in the presence, and the other enzyme dilution in the absence, of the protease inhibitor aprotinin. […] The peptide chosen for the trypsin enzyme had the amino acid sequence GPARLA (number 42 from example 1) and the peptide chosen for the chymotrypsin enzyme had the sequence GVPFGP (number 43 from example 1). […] Then, to carry out the proteolytic cleavage in the presence of an inhibitor, 7.5 μl of an aprotinin solution (1 μg/ml for trypsin and 1 mg/ml for chymotrypsin) were put into the first well, and 5 μl of the aprotinin solution (1 μg/ml for trypsin and 1 mg/ml for chymotrypsin) were put into each of the next 10 wells. […] No enzyme solution was put in the last peptide-containing well.
(§2) The inhibition constant of aprotinin can be calculated by comparing the catalytic efficiency (kcat/KM) in the presence and in the absence of aprotinin. kcat/KM values are calculated according to equation (6) and the relationship obtained (equation (17)):
(§3) (kcat/KM)0/(kcat/KM)=1+[I]total/Ki

chymotrypsin = test: Inhibition of enzymatic conversion of GVPFGP by chymotrypsin; type: biochemical; settings: degradation of GVPFGP by chymotrypsin; geometric mean and standard deviation of a quadruplicate measurement; read-out: inhibition constant
Experimental: as §1, §2, §3

[3] = Half-lives of peptides in murine intestinal fluid (intestinal enzyme solution); settings: relates to undiluted murine intestinal fluid, 90 min incubation in dilutions, 37° C.
Experimental: Anesthetized female Balb/c mice were sacrificed by cervical dislocation and their abdominal wall was opened. The small bowel was clamped with a hemostat behind the stomach outlet (proximal end) and severed from the stomach. The small bowel was exposed and clamped with a second hemostat near the posterior (distal) end. The bowel was severed a second time behind this point.
The subsequent preparation steps to obtain the digestive secretions were performed on an ice-cooled surface. The small bowel closed on both sides was agitated in ice-cold simulated intestinal fluid (SIF; 8 mM phosphate, pH 7.2, with 4.6 mM K^+, 111.3 mM Na^+, 101.5 mM Cl) according to Lockwood and Randall (1949), which was intended to imitate as accurately as possible the physiological conditions of the small bowel in terms of ion concentrations, in order to remove external contaminants and keep it moist. To obtain the digestive secretions present in the small bowel, the distal end of the bowel was suspended in a reaction vessel and the hemostat attached on this side was removed. A lateral cut was then made at the proximal end of the bowel so that a syringe provided with a button cannula could be introduced into the bowel which was held without tension. The bowel contents were washed out in three steps. The washing solutions were successively injected slowly into the bowel and collected at the lower end of the bowel separately in three reaction vessels. Firstly, the bowel was rinsed with a volume of 6 ml of perfluorohexane, an inert liquid which is immiscible with water, and the perfluorohexane was driven out with 4 ml of air. Then a mixture of 2.25 ml of perfluorohexane and 0.25 ml of SIF which contained the nonphysiological ions Li^+ and Cs^+, was used for washing in order to be able subsequently to determine the dilution by spectroscopic methods. […] In a third washing step, 5 ml of SIF without tracer were injected. Solid constituents of the bowel contents and the perfluorohexane were separated by centrifugation from the aqueous phase, in which the digestive enzymes were present. An inductively coupled plasma mass spectrometry (ICP-MS) was used to determine the concentrations of Li^+ and Cs^+ in the intestinal enzyme solution, and the dilution factor was calculated taking the volume of the washing buffer into account. The dilution of the third lavage was ascertained via endogenous markers of intestinal secretion (e.g. enzymic activities, immunoglobulins), in comparison with the first two intestinal enzyme solutions. The enzyme solutions were stored after freezing with liquid nitrogen at −70° C.
On a polypropylene microtiter plate having the same format as the coated polystyrene microtiter plate (see example 4), 7.5 μl of peptide solution were introduced into the first well of a row, and 5 μl of the peptide solution were introduced into each of the next 10 wells. The last well remained empty and was intended to serve as background correction. Then, simulated intestinal fluid (SIF) with the addition of 0.005% Tween 20 and 1 mM CaCl (SIFT-CaCl) was put in all the wells. The well with 7.5 μl of peptide solution received 60 μl of SIFT-CaCl, and the wells with 5 μl of peptide solution each received 45 μl of SIFT-CaCl. The empty well for the background correction received 50 μl of SIFT-CaCl. The enzymatic reaction was then started by adding 7.5 μl of a dilution of an intestinal enzyme solution (obtained as in example 2) to the well with 7.5 μl of peptide solution and 60 μl of SIFT-CaCl. 25 μl of this mixture were immediately pipetted into the next well and mixed, and this step was repeated to result in a serial 1:3 dilution of the intestinal enzyme solution over a total of 10 wells. No enzyme solution was put into the last peptide-containing well. Each well thus contained a volume of 50 μl after the serial dilution.

For “GPARLAIG [GPARLAIG variant of the trypsin substrate, measured with FRET-based methods (Grahn et al., 1998)]”, the catalytic efficiency (trypsin [1]) is given as 1.2e+06 M⁻¹ s⁻¹.

Substance aprotinin has a Ki (trypsin [2]) of 1 nM and a Ki (chymotrypsin) of 480 nM.

Substance KLPGFGDSIEAQCGTS has a t1/2 ([3]; 16-mer peptides) of 6.4211 s.

Work on GSAEAGVDAA yielded a t1/2 ([3]; 10-mer peptides) of 3.1271 s.

With FDKLPGFGDSIEAQCG the t1/2 ([3]; 16-mer peptides) was 5.6930 s.

For FGDSIEAQCGTSVNVH, the t1/2 ([3]; 16-mer peptides) was 1.3951 s.

PGFGDSIEAQCGTSVN showed a t1/2 ([3]; 16-mer peptides) of 5.0348 s.

Work on VVGSAEAGVD yielded a t1/2 ([3]; 10-mer peptides) of 4.0618 s.
